Patent publication US20250205185A1 (COSMED PHARMACEUTICAL CO., LTD., priority 2022, published 2025)

Assay: Microscope observation of taurine crystals (Test Example 1)
Type: physicochemical
Details: observed with a microscope; for Maximum particle size (length) μm: length = major axis; for Maximum particle size (thickness) μm: thickness = minor axis

Row | SMILES | Crystalline form | Maximum particle size (length) μm | Maximum particle size (thickness) μm
1 | NCCS(=O)(=O)O [Comparative Example 1, taurine] | Massive | 700 μm | 160 μm
2 | NCCS(=O)(=O)O [Comparative Example 2, taurine] | Massive | 2000 μm | 300 μm
3 | NCCS(=O)(=O)O [Comparative Example 3, taurine, reference compound] | Massive | 6740 μm | 1680 μm
4 | NCCS(=O)(=O)O [Example 1, taurine] | Columnar | 280 μm | 145 μm
5 | NCCS(=O)(=O)O [Example 2, taurine] | Columnar | 150 μm | 80 μm
6 | NCCS(=O)(=O)O [Example 3, taurine] | Columnar | 150 μm | 100 μm
7 | NCCS(=O)(=O)O [Example 4, taurine] | Columnar | 100 μm | 70 μm
8 | NCCS(=O)(=O)O [Example 5, taurine] | Needle- | 800 μm | 55 μm
9 | NCCS(=O)(=O)O [Example 6, taurine] | Needle- | 250 μm | 25 μm
10 | NCCS(=O)(=O)O [Example 7, taurine] | Needle- | 250 μm | 20 μm
11 | NCCS(=O)(=O)O [Example 8, taurine] | Needle- | 220 μm | 30 μm
12 | NCCS(=O)(=O)O [Example 9, taurine] | Needle- | 150 μm | 40 μm
13 | NCCS(=O)(=O)O [Example 10, taurine] | Needle- | 720 μm | 25 μm
14 | NCCS(=O)(=O)O [Example 11, taurine] | Needle- | 370 μm | 20 μm
